Data from PMC10805311, “Pseudomonas aeruginosa two-component system CprRS regulates HigBA expression and bacterial cytotoxicity in response to LL-37 stress” (PLOS Pathogens, 2024).
Values after ≈ are worked out from the molar mass of the structure shown. Like-named read-outs stand apart in the source and are kept apart here. Residues, ends and D or L forms follow the SMILES beside them. No end group written: not given here.

Tests used:
WT P. aeruginosa = assay: microbe, parasite or virus in culture; format: cell-based; conditions: 37°C; for MIC: without LL-37, LB medium, OD600 = 0.1, 24 h; for MIC (+ LL-37): antibiotic + LL-37 (LL-37 pretreatment), LB medium, 24 h
Procedure: (§1) The initial concentrations of meropenem, cephalosporin, tetracycline, gentamicin, ciprofloxacin, polymyxin B, and colistin are: 0.1 mg/mL, 0.02 mg/mL, 0.5 mg/mL, 0.16 mg/mL, 1 mg/mL, 0.1 mg/mL, and 0.1 mg/mL, all the antibiotics were 10 × gradient dilution with sterile PBS buffer. Overnight bacterial cultures of WT P. aeruginosa and mutants were re-inoculated into fresh LB medium supplemented at OD600 = 0.1, then 90 μL cultures and 10 μL antibiotic dilutions were added in a 96-well microtiter dish for 24 h at 37°C.

[1] = tested on: full-length CprS (CprSFL); assay: Microscale thermophoresis (MST), full-length CprS; format: binding, P. aeruginosa; conditions: 100 nM CprS, cationic peptides from 500 μM, 25°C 30 min
Procedure: The E. coli BL21 (DE3) strains harboring pET22b-cprS and pET22b-cprR were cultured at 37°C in LB medium and suppled with 0.4 mM IPTG as the OD600 reached to 0.8. The cultures were incubated at 16°C for an additional 14 h and the cells were collected and resuspended in buffer A (20 mM tris-HCl (pH 8.0), 150 mM NaCl). The cells were lysed by ultrasound and centrifuged at 15, 000 rpm for 20 min at 4°C. Then the supernatant was applied to Ni-agarose resins and eluted with buffer containing 300 mM imidazole. As for full-length CprS, the supernatant needed to be extracted by 2% ELUGENT Detergent and flow 0.02% DDM for elution. The target proteins were further purified via AKTA purifier using buffer A and concentrated to 12 mg/mL.
The 100 nM CprS with His-tag was labeled with Monolith His-Tag Labelling Kit RED-tris-NTA 2nd Generation Kit and the cationic peptides used in this work were diluted with PBST buffer gradient from 0.5 mM [34]. The proteins and cationic peptide dilutions were mixed and incubated at 25°C for 30 min and detected on a Monolith NT.115 instrument. The data were analyzed by NanoTemper Analysis 1.2.20 software.

cprS = assay: qRT-PCR, cprS transcription; format: cell-based, P. aeruginosa; conditions: oprL as normalizer
Procedure: (§2) Overnight bacterial cultures were subcultured in fresh LB medium to OD600 0.8 and the cells were collected by using Trizol. The cDNA was synthesized by using PrimeScript RT reagent Kit. 2 × SYBR qPCR Master Mix was used to perform qPCR assays. The reaction step was 2 × SYBR qPCR Master Mix (Without ROX) 10 μL, upstream Primer (10 μM) 0.4 μL, downstream Primer (10 μM) 0.4 μL, template cDNA 1 μg and ddH2O up to 20 μL. The qPCR procedure was set as: stage 1 (95°C 30 s, repeat once), stage 2 (95°C 10 s, 60°C 30 s, repeat for 40 times) and stage 3 (95°C 15 s, 60°C 1 min, 95°C 15 s, repeat 1 time). The oprL gene was used as a normalizer. The same method was used for mammalian cells, and 18 sRNA served as a normalizer.

cprR = assay: qRT-PCR, cprR transcription; format: cell-based, P. aeruginosa; conditions: oprL as normalizer
Procedure: as §2

P. aeruginosa ΔcprR = format: cell-based; conditions: 37°C; for MIC (+ LL-37): antibiotic + LL-37 (LL-37 pretreatment), LB medium, 24 h; for MIC: without LL-37, LB medium, OD600 = 0.1, 24 h
Procedure: as §1

P. aeruginosa ΔcprS = format: cell-based; conditions: 37°C; for MIC (+ LL-37): antibiotic + LL-37 (LL-37 pretreatment), LB medium, 24 h; for MIC: without LL-37, LB medium, OD600 = 0.1, 24 h
Procedure: as §1

[2] = tested on: P. aeruginosa PAO1 strain H103; conditions: cited from earlier work
Text: TCSs represent the most common signal-transduction cascades in bacteria, sensing external cues such as ions, peptides, and compounds [46, 47]. Canonical TCSs comprise a transmembrane sensor histidine kinase (HK) and an intracellular response regulator (RR). Upon binding to specific stimuli, the HK undergoes autophosphorylation and transfers the phosphoryl group to the RR, activating its transcription regulation ability to influence bacterial behavior. To date, over 60 TCSs have been identified in the P. aeruginosa PAO1 genome, they have been recognized as crucial players in various b ...

[3] = molecular target: CprS periplasmic sensor domain CprSSD (residues 28-163) (Pseudomonas aeruginosa); assay: MST; 100 nM His-tagged CprS labelled with Monolith His-Tag Labelling Kit RED-tris-NTA 2nd Generation; cationic peptides in 16 doubling dilutions from 500 uM (0.5 mM) in PBST; incubated at 25 C for 30 min; Monolith NT.115; repeated three times
[4] = molecular target: full-length CprS (CprSFL), sensor histidine kinase of the two-component system CprRS (Pseudomonas aeruginosa); assay: as above
CarSR system = conditions: Vibrio cholerae; cited from earlier work
Text: In the field of microbiology and immunology, the interaction between host antimicrobial peptides and pathogenic bacteria has been a subject of extensive research. The success of bacterial infections depends on a delicate balance of signals exchanged between microbes and hosts. Cationic antimicrobial peptides, including defensins such as α-defensins, β-defensins, and cathelicidin LL-37, are crucial components of innate host defense against bacterial infections. Numerous studies have shown that LL-37 acts as a shield between the host and the external environment, preventing bact ...

[5] = Pseudomonas aeruginosa, read-out: MIC

`O=C(O)c1cn(C2CC2)c2cc(N3CCNCC3)c(F)cc2c1=O` [CIP, ciprofloxacin] showed an MIC (WT P. aeruginosa; [5]) of 2 µg/mL (≈ 6.04 µM).

With `CNC(C)C1CCC(N)C(OC2C(N)CC(N)C(OC3OCC(C)(O)C(NC)C3O)C2O)O1` (stereo not shown) [GM, Gentamicin] the MIC (WT P. aeruginosa; [5]) was 12.5 µg/mL (≈ 26.2 µM).

In the case of `C[C@@H](O)[C@H]1C(=O)N2C(C(=O)O)=C(S[C@@H]3CN[C@H](C(=O)N(C)C)C3)[C@H](C)[C@H]12` [MEM, Meropenem], the MIC (WT P. aeruginosa; [5]) is reported as 10 µg/mL (≈ 26.1 µM).

For `CC[C@H](C)CCCCC(=O)N[C@@H](CCN)C(=O)N[C@H](C(=O)N[C@@H](CCN)C(=O)N[C@H]1CCNC(=O)[C@H]([C@@H](C)O)NC(=O)[C@H](CCN)NC(=O)[C@H](CCN)NC(=O)[C@H](CC(C)C)NC(=O)[C@@H](Cc2ccccc2)NC(=O)[C@H](CCN)NC1=O)[C@@H](C)O` [Polymyxin B] (HELM PEPTIDE1{[CC[C@H](C)CCCCC(=O)[*:2]].[Dab].T.[Dab].[Dab].[Dab].[dF].L.[Dab].[Dab].T}$PEPTIDE1,PEPTIDE1,5:R3-11:R2$$$V2.0; N-terminus assumed; bridges inferred), the “binding to CprS” value [1] was “no binding was observed”, the “expression of cprS under Polymyxin B treatment” value (cprS) was “no significant change in expression was observed” and the “expression of cprR under Polymyxin B treatment” value (cprR) was “no significant change in expression was observed”. The “MIC (+ LL-37)” value (WT P. aeruginosa) was 64 µg/mL, the MIC (WT P. aeruginosa) was 4 µg/mL (≈ 3.32 µM) and the “MIC (+ LL-37)” value (P. aeruginosa ΔcprR) was 1 µg/mL. For the same molecule, the MIC (P. aeruginosa ΔcprR) was 2 µg/mL (≈ 1.66 µM), the “MIC (+ LL-37)” value (P. aeruginosa ΔcprS) was 1 µg/mL and the MIC (P. aeruginosa ΔcprS) was 2 µg/mL (≈ 1.66 µM). The CprRS-mediated adaptive resistance [2] was “adaptive resistance”.

With `CN(C)[C@@H]1C(O)=C(C(N)=O)C(=O)[C@@]2(O)C(O)=C3C(=O)c4c(O)cccc4[C@@](C)(O)[C@H]3C[C@@H]12` [TE, Tetracycline] the MIC (WT P. aeruginosa; [5]) was 3.2 µg/mL (≈ 7.2 µM).

In the case of `CC[C@H](C)CCCCC(=O)N[C@@H](CCN)C(=O)N[C@H](C(=O)N[C@@H](CCN)C(=O)N[C@H]1CCNC(=O)[C@H]([C@@H](C)O)NC(=O)[C@H](CCN)NC(=O)[C@H](CCN)NC(=O)[C@H](CC(C)C)NC(=O)[C@@H](CC(C)C)NC(=O)[C@H](CCN)NC1=O)[C@@H](C)O` [colistin, Colistin] (HELM PEPTIDE1{[CC[C@H](C)CCCCC(=O)[*:2]].[Dab].T.[Dab].[Dab].[Dab].[dL].L.[Dab].[Dab].T}$PEPTIDE1,PEPTIDE1,5:R3-11:R2$$$V2.0; N-terminus assumed; bridges inferred), the “binding to CprS” value [1] is reported as “no binding was observed”, the “MIC (+ LL-37)” value (WT P. aeruginosa) is reported as 64 µg/mL and the MIC (WT P. aeruginosa) is reported as 4 µg/mL (≈ 3.42 µM). For the same molecule, the “MIC (+ LL-37)” value (P. aeruginosa ΔcprR) was 1 µg/mL, the MIC (P. aeruginosa ΔcprR) was 1 µg/mL (≈ 0.855 µM) and the “MIC (+ LL-37)” value (P. aeruginosa ΔcprS) was 0.5 µg/mL. It also gave an MIC (P. aeruginosa ΔcprS) of 1 µg/mL (≈ 0.855 µM).

In the case of human host defense peptide LL-37, the Kd [3] is reported as 5.34 µM and the Kd [4] is reported as 1.41 µM.

For “indolicidin: cationic peptide antibiotic (ILPWKWPWWPWRR; ends and bridges not checked; UniProt P33046 131-143, looked up)”, the CprRS-mediated adaptive resistance [2] is listed as “adaptive resistance”.

B1: α-defensin 5: human enteric α-defensin 5 (peptide, UniProt Q01523 20-94, looked up)
Defensin alpha 5: ESLQERADEATTQKQSGEDNQDLAISFAGNGLSALRTSGSQARATCYCRTGRCATRESLSGVCEISGRLYRLCCR
modifications: Defensin-5
In the case of B1, the “sensing by CarSR” value (CarSR system) is listed as “sense human enteric α-defensin 5 and LL-37 to promote bacterial pathogenicity”.
